Patent EP0943680A1 (priority 1998, dated 1999)
Converted amounts (≈) assume the structure as drawn. “Also recorded” adds a separate entry of the source. Like-named read-outs stand apart in the source and are kept apart here. Marks after values point to notes of the source that are not given here.

Assays:
C6 Rat glioma = format: cell-based
[1] = system: U-373 MG Human Glioblastoma; format: cell-based; conditions: parental U-373 MG
Hs 683 Human Glioma = format: cell-based; conditions: parental Hs 683
[2] = system: Sk-N-MC Human Neuroblastoma; format: cell-based; conditions: parental Sk-N-MC
[3] = system: FLYA13 Human Amphotropic Packaging Cells; format: cell-based; conditions: parental FLYA13
[4] = system: ΨCRIP Murine Amphotropic Packaging Cells; format: cell-based; conditions: parental ΨCRIP
[5] = system: NlH 3T3 Murine Fibroblasts; format: cell-based; conditions: parental 3T3
[6] = system: Ag 9181 Human Fibroblasts; format: cell-based; conditions: parental Ag 9181
[7] = system: C6 Rat glioma lin ^+ clones; assay: cells; format: cell-based; conditions: for IC50: Rattus norvegicus
[8] = system: U-373 MG Human Glioblastoma lin ^+ clones; assay: cells; format: cell-based; conditions: U373 MG, U-373 MG lin+
[9] = system: Hs 683 Human Glioma lin ^+ clones; assay: cells; format: cell-based; conditions: Hs 683 lin+
[10] = system: Sk-N-MC Human Neuroblastoma lin ^+ clones; assay: cells; format: cell-based
[11] = system: FLYA13 Human Amphotropic Packaging Cells lin ^+ clones; assay: cells; format: cell-based
[12] = system: ΨCRIPlin plus normal C6 cells labeled red with Dil; format: cell-based
[13] = system: ΨCRIPlin /ΨCRIP red or ΨCRIPlin /3T3 red; format: cell-based; conditions: 100 µg/ml linamarin
[14] = system: brain tumor of glioblastoma-C6lin transfected cells; format: in vivo, Wistar rats
C6, ΨCRIP and 3T3 = conditions: very high concentrations of linamarin; cells without linamarase gene
[15] = system: rat glioblastoma C6 cells brain tumour
normal rat brains = conditions: local administration of up to 9 mg of linamarin
[16] = all human tissues; 1-20 mM linamarin, pH 6 and 7.4, 37°C
[17] = rat kidney only; 1-20 mM linamarin, pH 6 and 7.4, 37°C
adults = conditions: human, in vivo
[18] = system: ΨCRIP Murine Amphotropic Packaging Cells lin ^+ clones; assay: cells; conditions: Mus musculus
Female hamsters = conditions: oral dose of 108 mg of linamarin/kg body weight; cited from earlier work
animals = conditions: cited from earlier work
[19] = in the absence of linamarase; cited from earlier work
[20] = system: Neoplastic cells forming a tumor; conditions: cited from earlier work
[21] = best clone, read-out: IC50 µg/ml Linamarin lin ^+ clones Best clone
[22] = mean of at least 4 clones, […], read-out: IC50 µg/ml Linamarin lin ^+ clones Mean value

SMILES: CC(C)(C#N)O[C@@H]1O[C@H](CO)[C@@H](O)[C@H](O)[C@H]1O [linamarin, 2-0H-isobutyronitrile-β-D-glucopyranoside]
- % of survival cells with 1 mg/ml Linamarin (C6 Rat glioma; 1 mg/ml linamarin, parental C6): 100^a %
- survival of C6 alone (C6 Rat glioma; 10 mg/ml linamarin): 86%
- % of survival cells with 1 mg/ml Linamarin [1]: 80%
- % of survival cells with 1 mg/ml Linamarin (Hs 683 Human Glioma): 80%
- % of survival cells with 1 mg/ml Linamarin [2]: 80%
- % of survival cells with 1 mg/ml Linamarin [3]: 88^a %
- % of survival cells with 1 mg/ml Linamarin ([4]; 1 mg/ml linamarin): 85%
- cell survival values ([4]; up to 2 mg/ml of linamarin): did not substantially decrease cell survival values
- % of survival cells with 1 mg/ml Linamarin [5]: 90^a %
- % of survival cells with 1 mg/ml Linamarin [6]: 89^a %
- IC50 ([7]; C6lin clone, pH 6.6, read-out: estimated IC50): 202 µg/mL (≈ 817 µM)
- IC50 ([7]; C6lin clone, pH 7.4, read-out: estimated IC50): 345 µg/mL (≈ 1400 µM)
- IC50 ([7]; C6 lin+, best clone, read-out: IC50 µg/ml Linamarin lin ^+ clones Best clone): 345 µg/mL
- IC50 ([7]; C6 lin+, mean of at least 4 clones, […], read-out: IC50 µg/ml Linamarin lin ^+ clones Mean value): 407 µg/mL
- IC50 of C6lin clones relative to ΨCRIP individual clones ([7]; in general): 50 times higher
- IC50 [8, 21]: 145 µg/mL
- IC50 [8, 22]: 236 µg/mL
- IC50 [9, 21]: 230 µg/mL
- IC50 [9, 22]: 288 µg/mL
- IC50 [10, 21]: 183 µg/mL
- IC50 [10, 22]: 215 µg/mL
- IC50 ([11]; FLYA13lin clone, pH 6.6, read-out: estimated IC50): 77 µg/mL (≈ 311 µM)
- IC50 ([11]; FLYA13lin clone, pH 7.4, read-out: estimated IC50): 195 µg/mL (≈ 789 µM)
- IC50 ([11]; FLYA13 lin+, best clone, read-out: IC50 µg/ml Linamarin lin ^+ clones Best clone): 195 µg/mL
- IC50 ([11]; FLYA13 lin+, mean of at least 4 clones, […], read-out: IC50 µg/ml Linamarin lin ^+ clones Mean value): 382 µg/mL
- viability of either cell type in the mixture ([12]; 100 µg/ml linamarin): affect only partially the viability
- fate of both cell types in the mixture ([12]; 2.5 mg/ml of linamarin): died
- fate of the mixtures [13]: devastated
- outcome of the animal ([14]; similar size tumour, only 1 mg of linamarin): finally died as a consequence of the tumour
- tumour outcome by magnetic resonance imaging ([14]; tumour around 70 mm^3, total of 2.4 mg linamarin over 8 days, local infusion, image three weeks after treatment): total absence of the tumoral mass; also recorded: eradicated completely
- cyanide detected after linamarin treatment (C6, ΨCRIP and 3T3): No cyanide was detected
- outcome of the medium size tumour animal ([15]; rat, in vivo): died a month later
- outcome of control animals treated only with the prodrug ([15]; tumours of 220 and 140 mm^3, […]): died shortly afterwards
- tumour outcome, largest and smallest glioblastomas ([15]; tumours of 1000 mm^3 and 400 mm^3, […]): total eradication of the tumour
- cases developing a recurrence later ([15]; very large tumors (over 500 mm^3 in size), after up to six months): approximately 50%
- toxicity (normal rat brains): No apparent toxicity
- linamarase activity (cyanide release from linamarin) [16]: negative results for linamarase activity
- linamarase activity (cyanide release from linamarin) [17]: low but detectable levels of cyanide production
- equivalent of the lethal cyanide dose (adults): 500 to 1000 mg
- IC50 ([18]; read-out: IC50 µg/ml Linamarin lin ^+ clones Best clone): 7 µg/mL
- IC50 ([18]; read-out: IC50 µg/ml Linamarin lin ^+ clones Mean value): 32 µg/mL
- IC50 ([18]; read-out: concentrations that resulted in 50% cytotoxicity (IC50)): 7 to 60 µg/mL (≈ 28.3 to 243 µM)
- death (cyanide poisoning) (Female hamsters): 18 % of the animals
- toxicity compared with oral dosing (animals; administered intraperitoneally): practically absent
- toxicity compared with oral dosing (animals; similar doses intravenously): much lower
- excretion once absorbed [19]: excreted unchanged in the urine

SMILES: N#CO [sodium cyanate]
- higher sensitivity to the inhibitory effects at decreased extracellular pH [20]: ≥ 50%
